Data set [1] in a line: method code SF, from DOI: 10.1063/1.555833.

Here are results for 17 compounds from the SangsterLogP compilation.

As usually defined, the logP is a log measure of how a compound divides between an organic and an aqueous phase. A high value points to a more lipophilic compound. `Nc1c(-c2ccccc2)cnn1-c1ccccc1` yielded a lipophilicity (logP) in data set [1] of 2.52. In the case of `Cc1cc2c(c3c1[nH]c1ccccc13)C(=O)CC(C)(C)C2`, the logP in data set [1] is 3.58. `COc1ccc(Cc2nc3ccccc3c(=O)n2N)cc1OC` showed a logP in data set [1] of 1.94. `CCCCN1C(=O)c2ccc([N+](=O)[O-])cc2C1=O` had a logP in data set [1] of 2.26.

Compound `O=C1Cc2ccccc2C(c2ccc([N+](=O)[O-])cc2)N1` (configuration not stated) returned a logP in data set [1] of 2.48. In data set [1], `COc1ccc(-c2c(C)noc2N)cc1OC` displayed a logP of 1.53.

`COc1ccc(-c2cn[nH]c2N)cc1OC` showed a logP in data set [1] of 0.85.

Compound `O=c1[nH]c2ccccc2n1CCCN1CCN(C(c2ccccc2)c2ccccc2)CC1` came in with a logP of 2.73. `CCc1nn(-c2ccccc2)c(N)c1-c1ccc(OC)c(OC)c1` displayed a logP in data set [1] of 2.82. Still for that read-out and setting: with `Cc1nn(-c2ccccc2)c(N)c1-c1ccccc1` the figure was 2.92; with `COc1ccc(-c2cnoc2N)cc1OC`, 0.48. In the case of `CCc1n[nH]c(N)c1-c1ccccc1`, the logP in data set [1] amounted to 1.96.

`COc1ccc(-c2c(C)n[nH]c2N)cc1OC`: the logP in data set [1] worked out at 1.33. Compound `O=C(NCCCCCCNC(=O)c1ccccc1O)c1ccccc1O` gave a logP in data set [1] of 2.85. On the same count and under the same terms, with `Nc1[nH]nc(Cc2ccccc2)c1-c1ccccc1` the figure was 2.39. In data set [1], `CCc1n[nH]c(N)c1-c1ccc(OC)c(OC)c1` had a logP of 1.37. `CC(=O)n1cc(C2=C(O)C(C)(C)CCC2=O)c2ccccc21`: the logP in data set [1] turned out to be 2.16.
